In patent publication US20230096028A1, “BICYCLIC HETEROCYCLYL COMPOUNDS AND USES THEREOF” (Revolution Medicines, Inc., priority 2019, published 2023):
Structures can show the parent of a compound that is named as a salt. Where two headings read alike, the source gives them in different places.

Experiments:
SOS1 = target: T1, SOS1 (Homo sapiens, UniProt Q07889); test: Bodipy-FL-GTP Association Assay (SOS1-mediated exchange of KRAS-4B:GDP to KRAS-4B:GTP); assay type: biochemical; details: SOS1-mediated BODIPY FL GTP exchange on KRAS-4B, 22° C.
T1 construct: SOS1 (Cytoskeleton Inc., Cat. CS-GE02); purchased Cytoskeleton Inc. CS-GE02
T1 sequence (Q07889 564-1049 limits assumed): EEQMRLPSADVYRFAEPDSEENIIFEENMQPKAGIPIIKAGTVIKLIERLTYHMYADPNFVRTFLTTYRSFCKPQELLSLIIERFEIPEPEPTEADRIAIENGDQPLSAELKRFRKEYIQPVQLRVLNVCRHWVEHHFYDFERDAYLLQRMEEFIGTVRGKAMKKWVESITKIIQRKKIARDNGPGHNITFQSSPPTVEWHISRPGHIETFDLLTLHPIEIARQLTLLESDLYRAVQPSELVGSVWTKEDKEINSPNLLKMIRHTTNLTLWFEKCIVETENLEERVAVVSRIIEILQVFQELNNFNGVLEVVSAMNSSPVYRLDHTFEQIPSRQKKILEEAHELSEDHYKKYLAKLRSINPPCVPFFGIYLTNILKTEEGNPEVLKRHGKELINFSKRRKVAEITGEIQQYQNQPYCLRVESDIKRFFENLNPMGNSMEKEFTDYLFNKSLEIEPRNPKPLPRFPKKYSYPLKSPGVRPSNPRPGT
Method: A low IC50 value for a given compound is indicative of high potency of said compound in inhibiting the guanine nucleotide exchange factor (GEF) activity of SOS1 on KRAS-4B in this assay setting.
Reagents: BODIPY FL GTP (ThermoFisher Scientific, Cat. G12411); KRAS4-B (Cytoskeleton Inc., Cat. CSRS03); SOS1 (Cytoskeleton Inc., Cat. CS-GE02); 2×Assay Buffer: 40 mM Tris-HCl, pH 7.5; 100 mM NaCl; 20 mM MgCl2; 0.1 mg/mL BSA; 0.02% NP-40
Assay Procedure: Test compounds were dissolved in DMSO to create 20 mM master stocks. The stocks were diluted in a 3× dilution series in 100% DMSO to achieve 100× compound stocks. A 1 μl spot of each test compound stock was delivered to two adjacent wells of a 96-well assay plate prior to running the assay. Reaction Mix preparation: The following were mixed in order at room temperature to obtain the “Reaction Mix” (5.75 mL 2× Exchange Buffer; 3.22 mL MilliQ ddH2O; 3 μL 5 mM BODIPY FL GTP; 230 μL 50 μM KRAS-4B; 9.203 mL Total volume. Reaction initiation: 80 μL of Reaction Mix was pipetted into each well of a half-area black 96-well plate (Corning, Cat. 3686) containing either a 1 μL spot of DMSO or a 1 μL spot test compound at the concentrations listed above. 20 μL of 1 μM SOS1 was then added to each well to initiate the reaction. For the no GEF control wells this was replaced with 1× exchange buffer. Kinetic measurement: The reaction was monitored in a SpectraMax M2 Microplate Reader (Molecular Devices) under the following protocol: 5 second rapid circular mixing before first read; 61 readings, 30 seconds apart; Assay temperature: 22° C.; Excitation wavelength: 485 nm; Emission wavelength: 513 nm. Data Analysis: The Vmax values for the SOS1-mediated BODIPY FL GTP exchange curves in the presence of test compounds were normalized to the most dilute test sample columns or DMSO only control wells to give the % Activity for each concentration of test compound. Plots of % Activity vs. the Log 10 of the compound concentration were fit by non-linear regression to a 4-parameter logistic model.

[1] = tested on: PC-9 cells (EGFR Ex19Del); test: Potency Assay: pERK (SOS1 pERK IC50 Assay, AlphaLISA SureFire Ultra p-ERK1/2); assay type: cell-based; details: Homo sapiens, read-out: SOS1 pERK IC50
In short: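 Cellular pERK1/2 by AlphaLISA SureFire Ultra after 1 h compound exposure (37° C., highest concentration 10 μM, 3-fold steps, duplicates) of EGFR Ex19Del PC-9 cells seeded the day before. A 4-parameter fit of signal versus log concentration gives IC50.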

[2] = target: T2, SOS1 catalytic domain (residues 564-1049) (Homo sapiens, UniProt Q07889); test: Potency Assay: binding affinity to SOS1 using Surface Plasmon Resonance (SPR); design: SOS1 catalytic domain (residues 564-1049) immobilized on a sensor chip; details: immobilized SOS1 catalytic domain (residues 564-1049), read-out: SOS1 SPR Equilibrium Kd
T2 sequence (Q07889 564-1049): T1 sequence (Q07889 564-1049 limits assumed)
In short: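 Kd was obtained by plotting binding response, taken just before association ended, versus compound concentration on a Biacore 8K. Compounds flowed at 50 μL/min over streptavidin-captured avi-SOS1 catalytic domain (~6000 RU), followed by buffer dissociation; HEPES 0.01 M/NaCl 0.15 M/0.05% P20 buffer, double-referenced.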

[3] = target: T2, SOS1 catalytic domain (residues 564-1049); test: Mode of Action Assay: inhibition of SOS1 nucleotide exchange activity (SOS1 TR-FRET IC50 Assay)
[4] = PC-9 cells (EGFR Ex19Del), 1 hour incubation, AlphaLISA p-ERK1/2

Structure (SMILES)	IC50 (SOS1) [µM]	IC50 [1, 4] [µM]	Kd [2] [µM]	IC50 [3] [µM]	IC50 ([1]; PC-9, 1 h) [µM]
C[C@@H](Nc1nc(CNC2CC2)nc2c1CN(C(=O)N1CCOCC1)C2)c1cccc(C(F)F)c1F [Example 508, 2-[(cyclopropylamino)methyl]-N-{1-[3-(difluoromethyl)-2-fluorophenyl]ethyl}-6-(morpholine-4-carbonyl)-5H,6H,7H-pyrrolo[3,4-d]pyrimidin-4-amine]	–	> 1	< 0.4	< 1	–
C[C@@H](Nc1nc(Cl)nc2c1CN(C(=O)N1CCOCC1)C2)c1cccc(C(F)F)c1Cl [Example 522, 2-chloro-N-[(1R)-1-[2-chloro-3-(difluoromethyl)phenyl]ethyl]-6-(morpholine-4-carbonyl)-5H,6H,7H-pyrrolo[3,4-d]pyrimidin-4-amine]	–	–	< 0.4	< 1	< 1
C[C@@H](Nc1nc(Cl)nc2c1CN(C(=O)N1CCOCC1)C2)c1cccc2c1COCC2(F)F [Example 523, 2-chloro-N-[(1R)-1-(4,4-difluoro-3,4-dihydro-1H-2-benzopyran-8-yl)ethyl]-6-(morpholine-4-carbonyl)-5H,6H,7H-pyrrolo[3,4-d]pyrimidin-4-amine]	–	–	< 0.4	< 1	< 1
COC1(C(=O)N2Cc3nc(Cl)nc(N[C@H](C)c4cccc(C(F)(F)CN)c4)c3C2)CCOCC1 [Example 525, N-[(1R)-1-[3-(2-amino-1,1-difluoroethyl)phenyl]ethyl]-2-chloro-6-(4-methoxyoxane-4-carbonyl)-5H,6H,7H-pyrrolo[3,4-d]pyrimidin-4-amine]	–	< 1	< 0.4	< 1	–
C[C@@H](Nc1nc(Cl)nc2c1CN(C(=O)N1CCOCC1)C2)c1cccc(C(F)F)c1Br [Example 528, N-[(1R)-1-[2-bromo-3-(difluoromethyl)phenyl]ethyl]-2-chloro-6-(morpholine-4-carbonyl)-5H,6H,7H-pyrrolo[3,4-d]pyrimidin-4-amine]	–	–	> 0.4	< 1	< 1
C[C@@H](Nc1nc(Cl)nc2c1C[N+](=C(N(C)C)N(C)C)C2)c1cccc(C(F)F)c1F [Example 529, 1-[2-chloro-4-[[(1R)-1-[3-(difluoromethyl)-2-fluoro-phenyl]ethyl]amino]-5,7-dihydropyrrolo[3,4-d]pyrimidin-6-ium-6-ylidene]-N,N,N′,N′-tetramethyl-methanediamine formate]	–	–	< 0.4	< 1	> 1
C[C@@H](Nc1nc(CN2CCOCC2)nc2c1CN(C(=O)N1CCOCC1)C2)c1cccc(C(F)F)c1F [Example 539]	–	> 1	> 0.4	< 1	–

Second part, led by results:

IC50 (SOS1) [µM]	IC50 [1, 4] [µM]	Kd [2] [µM]	IC50 [3] [µM]	Structure (SMILES)	IC50 ([1]; PC-9, 1 h) [µM]
< 1	–	–	–	C[C@@H](Nc1nc(Cl)nc2c1CN(C(=O)N1CCOCC1)C2)c1cc(N)cc(C(F)(F)F)c1 [Example 1, N-[(1R)-1-[3-amino-5-(trifluoromethyl)phenyl]ethyl]-2-chloro-6-(morpholine-4-carbonyl)-5H,6H,7H-pyrrolo[3,4-d]pyrimidin-4-amine]	–
1 to 5	–	–	–	Cc1nc2c(c(N[C@H](C)c3cc(N)cc(C(F)(F)F)c3)n1)CN(C(=O)N1CCOCC1)CC2 [Example 2, N-[(1R)-1-[3-amino-5-(trifluoromethyl)phenyl]ethyl]-2-methyl-6-(morpholine-4-carbonyl)-5H,6H,7H,8H-pyrido[4,3-d]pyrimidin-4-amine]	–
< 1	–	–	–	C[C@@H](Nc1nc(Cl)nc2c1CN(C(=O)N1CCOCC1)CC2)c1cc(N)cc(C(F)(F)F)c1 [Example 3, N-[(1R)-1-[3-amino-5-(trifluoromethyl)phenyl]ethyl]-2-chloro-6-(morpholine-4-carbonyl)-5H,6H,7H,8H-pyrido[4,3-d]pyrimidin-4-amine]	–
–	> 1	> 0.4	< 1	C[C@@H](Nc1nc(CN2CCOCC2)nc2c1CN(C(=O)N1CCOCC1)C2)c1cc(N)cc(C(F)(F)F)c1 [Example 504, N-[(1R)-1-[3-amino-5-(trifluoromethyl)phenyl]ethyl]-2-[(morpholin-4-yl)-methyl]-6-(morpholine-4-carbonyl)-5H,6H,7H-pyrrolo[3,4-d]pyrimidin-4-amine]	–
–	> 1	> 0.4	> 1	CNc1nc2c(c(N[C@H](C)c3cccc(C(F)F)c3F)n1)CN(C(=O)N1CCOCC1)C2 [Example 505, N4-[(1R)-1-[3-(difluoromethyl)-2-fluorophenyl]ethyl]-N2-methyl-6-(morpholine-4-carbonyl)-5H,6H,7H-pyrrolo[3,4-d]pyrimidine-2,4-diamine]	–
–	> 1	< 0.4	< 1	Cc1c(C(C)Nc2nc(Cl)nc3c2CN(C(=O)N2CCOCC2)C3)cccc1C(F)(F)CO (stereo not drawn) [Example 507, 2-[3-(1-{[2-chloro-6-(morpholine-4-carbonyl)-5H,6H,7H-pyrrolo[3,4-d]pyrimidin-4-yl]amino}ethyl)-2-methylphenyl]-2,2-difluoroethan-1-ol]	–
–	> 1	< 0.4	< 1	COC1(C(=O)N2Cc3nc(C(N)=O)nc(N[C@H](C)c4cccc(C(F)F)c4F)c3C2)CCOCC1 [Example 510, 4-{[(1R)-1-[3-(difluoromethyl)-2-fluorophenyl]ethyl]-amino}-6-(4-methoxyoxane-4-carbonyl)-5H,6H,7H-pyrrolo[3,4-d]pyrimidine-2-carboxamide]	–
–	< 1	< 0.4	< 1	COC1(C(=O)N2Cc3nc(Cl)nc(N[C@H](C)c4cccc(C(F)(F)CN)c4F)c3C2)CCOCC1 [Example 526, N-[(1R)-1-[3-(2-amino-1,1-difluoroethyl)-2-fluorophenyl]ethyl]-2-chloro-6-(4-methoxyoxane-4-carbonyl)-5H,6H,7H-pyrrolo[3,4-d]pyrimidin-4-amine]	–
–	> 1	< 0.4	< 1	C[C@@H](Nc1nc(Cl)nc2c1CN(C(=O)N1CCOCC1)C2)c1cccc(CF)c1F [Example 527, 2-chloro-N-[(1R)-1-[2-fluoro-3-(fluoromethyl)phenyl]ethyl]-6-(morpholine-4-carbonyl)-5H,6H,7H-pyrrolo[3,4-d]pyrimidin-4-amine]	–
–	< 1	< 0.4	< 1	C[C@@H](Nc1nc(Cl)nc2c1CN(C(=O)N1CCOCC1)C2)c1cccc(C(F)F)c1F [Example 537]	–
–	> 1	< 0.4	< 1	C[C@@H](Nc1nc(Cl)nc2c1CN(C(=O)N1CCOCC1)C2)c1cccc(C(F)(F)C2COCCN2)c1 (stereo partly drawn) [Example 538, (2-chloro-4-(((1R)-1-(3-(difluoro(morpholin-3-yl)methyl)phenyl)ethyl)amino)-5,7-dihydro-6H-pyrrolo[3,4-d]pyrimidin-6-yl)(morpholino)methanone]	–
